In patent US10822331B2, “Processes for preparing ATR inhibitors” (Vertex Pharmaceuticals Incorporated, priority 2011, dated 2020):

Test system: HCT116 colorectal cancer cells
Assay: Cisplatin sensitization assay (96 h MTS cell viability)
Type: cell-based
Details: concentration of compound required to reduce the IC50 of Cisplatin alone by at least 3-fold, HCT116, 96 h
Description: Compounds can be screened for their ability to sensitize HCT116 colorectal cancer cells to Cisplatin using a 96 h cell viability (MTS) assay. […] Compounds and Cisplatin are then both added simultaneously to the cell media in 2-fold serial dilutions from a top final concentration of […] as a full matrix of concentrations in a final cell volume of 200 μl, and the cells are then incubated at 37° C. in 5% CO2. After 96 h, 40 μl of MTS reagent (Promega G358a) is added to each well and the cells are incubated for 1 h at 37° C. in 5% CO2.

Compound	Cisplatin sensitization [nM]
[2H]C([2H])([2H])NCc1ccc(-c2cc(-c3nc(-c4ccc(S(=O)(=O)C(C)C)cc4)cnc3N)on2)cc1 [II-3, 5-(4-isopropylsulfonylphenyl)-3-[3-[4-[(trideuteriomethylamino)methyl]phenyl]isoxazol-5-yl]pyrazin-2-amine]	39
[2H]C([2H])([2H])NC([2H])([2H])c1ccc(-c2cc(-c3nc(-c4ccc(S(=O)(=O)C(C)C)cc4)cnc3N)on2)cc1 [II-2, 3-[3-[4-[dideuterio-(trideuteriomethylamino)methyl]phenyl]isoxazol-5-yl]-5-(4-isopropylsulfonylphenyl)pyrazin-2-amine]	29
[2H]C([2H])(NC)c1ccc(-c2cc(-c3nc(-c4ccc(S(=O)(=O)C(C)C)cc4)cnc3N)on2)cc1 [II-1, 3-[3-[4-[dideuterio(methylamino)methyl]phenyl]isoxazol-5-yl]-5-(4-isopropylsulfonylphenyl)pyrazin-2-amine]	39
